Source: patent US20170210751A1, “PRMT5 INHIBITORS AND USES THEREOF” (Epizyme, Inc., priority 2014, published 2017)

Columns and labels:
[1] = tested on: Symmetric di-Methyl Arginine in Z-138 cells; experiment: Z-138 Methylation Assay (In Cell Western for symmetric di-methyl arginine); type: cell-based; settings: Homo sapiens, 96 hours incubation, symmetric di-methyl arginine normalised to DNA content, read-out: ICW EC50
Summary of the method: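 Z-138 cells were treated with compound for 96 h at 37 °C, then fixed on poly-D-lysine plates. Symmetric di-methyl arginine was detected by In-Cell Western (800 nm) with DRAQ5 DNA normalisation (700 nm). Percent inhibition used DMSO and 3 μM reference-compound controls; IC50 curves came from triplicate wells.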

[2] = tested on: Z-138 cell line; experiment: Z-138 Proliferation Assay (Cell Titer Glo); type: cell-based; settings: Homo sapiens, 120 h; Z-138 cells, 5 days incubation, ATP (Cell Titer Glo)
Summary of the method: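 Z-138 cells in RPMI with 10% FBS exposed 5 days at 37 °C to nine-point 3-fold dilutions, top 20 μM final, 0.2% DMSO, triplicate. ATP-based CellTiter-Glo luminescence; IC50 from 4-parameter fit of normalized curves.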

Compound `CC(=O)N1CC(Nc2cc(C(=O)NC[C@H](O)CN3CCc4c(cnn4C)C3)ncn2)C1` [Compound 3-29] has an EC50 [1] of over 1 µM and an EC50 [2] of over 5 µM.
Compound `CC(=O)N1CCC(Nc2cc(C(=O)NC[C@H](O)CN3CCc4ncn(C)c4C3)ncn2)CC1` [Compound 3-30, (S)-6-((1-acetylpiperidin-4-yl)amino)-N-(2-hydroxy-3-(3-methyl-6,7-dihydro-3H-imidazo[4,5-c]pyridin-5(4H)-yl)propyl)pyrimidine-4-carboxamide] has an EC50 [1] of over 1 µM and an EC50 [2] of over 5 µM.
With `O=C(COc1cccc2cccnc12)NCC(O)CN1CCc2ccsc2C1` (stereo not drawn) [Compound 1-5, N-(2-hydroxy-3-{4H,5H,6H,7H-thieno[2,3-c]pyridin-6-yl}propyl)-2-(quinolin-8-yloxy)acetamide] the EC50 [1] was 0.101 to 1 µM and the EC50 [2] was over 5 µM.
